Literature values as cited in paper PMC6630532 (ACS Infectious Diseases, 2019).

Test system: bacteria
Conditions: read-out: IC50 (in vitro antimicrobial effect of killing 50% of the bacteria)

**Q.** For H-TGRAKRRMQYNRR-NH2 [UBI29–41], which IC50 is on record?
**A.** 20 µM
